# Test results published in US8674096B2, “Substituted imidazo[1,5-a]quinoxalin-4-ones as phosphodiesterase 9 inhibitors” (priority 2009, dated 2014).
# Key:
# [1] = target: T1, PDE9 (Homo sapiens, UniProt O76083); assay: PDE9-inhibiting activity (SPA, 3H-cGMP degradation); type: biochemical
# T1 construct: made in house
# Procedure: The PDE9 used in the present experiment was expressed/purified by the method as in, for example, Guipponi et al., and Fisher et., al. (Fisher, D. A., et al., J. Biol. Chem., 273: pp. 15559-15564 (1998), Guipponi, M., et al., Hum. Genet., 103: pp. 386-392 (1998)).
# The PDE9-inhibiting activity was measured by the following method. That is, to a buffer solution containing tris(hydroxymethyl)aminomethane-hydrochloric acid (40 mM, pH 8.0), magnesium chloride (5 mM), and 2-mercaptoethanol (4 mM) were added cGMP (1 μM) and ^3H-cGMP (0.33 μCi/ml) to give a substrate buffer solution. A test substance solution and an enzyme solution which had been adjusted to an optimal concentration were added thereto to perform a reaction at 30° C. The enzyme reaction was stopped by the addition of Scintillation Proximity Assay (SPA) Beads (GE Healthcare, UK) containing 5 mM 3-isobutyl-1-methylxanthine (IBMX). For the enzyme activity, the amount of 5′-GMP, which is a reaction degradation product bound to SPA beads, was measured with a TopCount microplate reader (Hewlett Packard, USA).
# The inhibitory rate was calculated by taking the radioactivity of the control containing no test substance as (A), taking the radioactivity of the blank containing no enzyme as (B), and taking the radioactivity of the test substance as (C), and using the following equation. Inhibitory rate=100−{(C)−(B)/(A)−(B)}×100(%)
# T1 sequence (O76083 whole entry): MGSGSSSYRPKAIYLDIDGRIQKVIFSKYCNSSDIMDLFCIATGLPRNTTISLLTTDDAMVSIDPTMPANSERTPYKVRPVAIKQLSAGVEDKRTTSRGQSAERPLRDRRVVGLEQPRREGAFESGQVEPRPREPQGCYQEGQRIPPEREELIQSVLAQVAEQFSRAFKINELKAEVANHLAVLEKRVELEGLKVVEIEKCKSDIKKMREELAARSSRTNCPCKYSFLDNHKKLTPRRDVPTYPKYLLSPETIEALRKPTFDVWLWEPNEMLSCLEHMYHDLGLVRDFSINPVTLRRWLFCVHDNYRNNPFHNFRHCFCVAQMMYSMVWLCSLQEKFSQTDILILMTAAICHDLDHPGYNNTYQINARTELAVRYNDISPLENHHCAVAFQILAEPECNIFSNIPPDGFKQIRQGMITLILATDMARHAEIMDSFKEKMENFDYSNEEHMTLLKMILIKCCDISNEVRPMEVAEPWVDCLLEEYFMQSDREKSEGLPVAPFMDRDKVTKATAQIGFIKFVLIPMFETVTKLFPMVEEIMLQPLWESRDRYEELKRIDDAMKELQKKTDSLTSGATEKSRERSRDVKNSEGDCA
IC50 [1],melting point,SMILES
18 nM,312 °C (dec.),Cc1cc2c(cc1C(=O)N1Cc3ccccc3C1)[nH]c(=O)c1cnc(C3CCOCC3)n12 [Example 27]
12 nM,283 to 285 °C,Cc1cc2c(cc1C(=O)N1CCc3sccc3C1)[nH]c(=O)c1cnc(C3CCOCC3)n12.Cl [Example 35]
9.2 nM,,Cc1cc2c(cc1C(=O)N1CCc3nc4ncccc4cc3C1)[nH]c(=O)c1cnc(C3CCOCC3)n12 [Example 71]
2.5 nM,297 to 298 °C,Cc1cc2c(cc1C(=O)N1CCc3cc(F)ccc31)[nH]c(=O)c1cnc(C3CCOCC3)n12.Cl [Example 76]
1 nM,265 to 266 °C,Cc1cc2c(cc1C(=O)N1CCc3cc(Cl)ccc31)[nH]c(=O)c1cnc(C3CCOCC3)n12.Cl [Example 77]
2.6 nM,209 to 212 °C,Cc1cc2c(cc1C(=O)N1CCc3cc(S(=O)(=O)N(C)C)ccc31)[nH]c(=O)c1cnc(C3CCOCC3)n12.Cl [Example 80]
11 nM,210 to 214 °C,Cc1cc2c(cc1C(=O)N1Cc3ccc(Cl)cc3C1)[nH]c(=O)c1cnc(C3CCOCC3)n12.Cl [Example 103]
16 nM,237 °C (dec.),COc1cc2c(cn1)N(C(=O)c1cc3[nH]c(=O)c4cnc(C5CCOCC5)n4c3cc1OC)CC2 [Example 277]
10 nM,275 °C (dec.),O=C(c1cc2[nH]c(=O)c3cnc(C4CCOCC4)n3c2cc1Cl)N1CCc2cccnc21 [Example 279]
1 nM,292 to 294 °C,Cc1cc2c(cc1C(=O)N1CCc3cc(Cl)c(F)cc31)[nH]c(=O)c1cnc(C3CCOCC3)n12.Cl [Example 290]
0.8 nM,298 to 301 °C (dec.),COCc1cc2c(cc1C(=O)N1CCc3cc(Cl)ccc31)[nH]c(=O)c1cnc(C3CCOCC3)n12.Cl [Example 300]
4.2 nM,222 to 223 °C,Cc1cc2c(cc1C(=O)N1CCc3cc(Br)cnc31)[nH]c(=O)c1nnc(C3CCOCC3)n12 [Example 306]
4.1 nM,216 to 219 °C (dec.),CN(C)CCOc1cc2c(cc1C(=O)N1CCc3cc(F)ccc31)[nH]c(=O)c1cnc(C3CCOCC3)n12 [Example 309]
20 nM,242 to 243 °C,Cc1cc2c(cc1C(=O)N1CCc3cc(Br)cnc31)[nH]c(=O)c1nnc(C3CCOC3)n12.Cl (centres unmarked) [Example 312]
5.9 nM,,Cc1cc2c(cc1C(=O)N1CCc3cc(F)ccc31)[nH]c(=O)c1cnc(C3CCCOC3)n12 (centres unmarked) [Example 318]
1 nM,310 °C (dec.),COCc1cc2c(cc1C(=O)N1CCc3cc(Br)cnc31)[nH]c(=O)c1cnc(C3CCOCC3)n12.Cl [Example 320]
2.9 nM,208 °C (dec.),COCc1cc2c(cc1C(=O)N1CCc3cc(OC)ncc31)[nH]c(=O)c1cnc(C3CCOCC3)n12 [Example 333]
7.7 nM,340 °C (dec.),Cc1cc2c(cc1C(=O)N1CCc3cc(F)cnc31)[nH]c(=O)c1cnc(C3CCOCC3)n12.Cl [Example 344]
12 nM,,Cc1cc2c(cc1C(=O)N1CCc3cc(F)cnc31)[nH]c(=O)c1nnc(C3CCOCC3)n12 [Example 352]
0.8 nM,,Cc1cc2c(cc1C(=O)N1CC(C)(C)c3cc(Cl)ccc31)[nH]c(=O)c1cnc(C3CCOCC3)n12 [Example 516]

# Second part, the compound before the results:
SMILES,IC50 [1],melting point
"Cc1cc2c(cc1C(=O)N1CCc3ccccc31)[nH]c(=O)c1cnc(C3CCCC3)n12 [Example 3, 1-cyclopentyl-7-(2,3-dihydro-1H-indol-1-ylcarbonyl)-8-methylimidazo[1,5-a]quinoxalin-4(5H)-one]",6.7 nM,291 °C (dec.)
"O=C(c1ccc2c(c1)[nH]c(=O)c1nnc(-c3ccc(O)cc3)n12)N1CCc2c(Cl)cccc2C1 [Example 4, 7-[(5-chloro-3,4-dihydroisoquinolin-2(1H)-yl)carbonyl]-1-(4-hydroxyphenyl)[1,2,4]triazolo[4,3-a]quinoxalin-4(5H)-one]",19 nM,373 °C (dec.)
"Cc1cc2c(cc1C(=O)N1CCc3ccccc3C1c1ccncc1)[nH]c(=O)c1nnc(-c3ccc(O)c(Cl)c3)n12 (centres unmarked) [Example 5, 1-(3-chloro-4-hydroxyphenyl)-8-methyl-7-[(1-pyridin-4-yl-3,4-dihydroisoquinolin-2(1H)-yl)carbonyl][1,2,4]triazolo[4,3-a]quinoxalin-4(5H)-one]",2.3 nM,
"Cc1cc2c(cc1C(=O)N1CCc3cc(Cl)ccc31)[nH]c(=O)c1nnc(C(F)C3CC3)n12.Cl (centres unmarked) [Example 11, 7-[(5-chloro-2,3-dihydro-1H-indol-1-yl)carbonyl]-1-[cyclopropyl(fluoro)methyl]-8-methyl[1,2,4]triazolo[4,3-a]quinoxalin-4(5H)-one]",3.1 nM,309 to 311 °C
"Cc1cc2c(cc1C(=O)N1CCc3cc(F)ccc31)[nH]c(=O)c1nnc(C3CCC(F)(F)CC3)n12.Cl [Example 13, 1-(4,4-difluorocyclohexyl)-7-[(5-fluoro-2,3-dihydro-1H-indol-1-yl)carbonyl]-8-methyl[1,2,4]triazolo[4,3-a]quinoxalin-4(5H)-one hydrochloride]",22 nM,220 °C (dec.)
COC(=O)c1cccc2c1CN(C(=O)c1cc3[nH]c(=O)c4cnc(C5CCOCC5)n4c3cc1C)CC2.Cl [Example 68],3.5 nM,192 to 194 °C
Cc1cc2c(cc1C(=O)N1CCc3c(Cl)cccc3C1)[nH]c(=O)c1nnc(C3CCCC3)n12 [Example 91],20 nM,236 to 237 °C
Cc1cc2c(cc1C(=O)N1Cc3ccccc3C1)[nH]c(=O)c1nnc(C3CCOCC3)n12 [Example 93],15 nM,305 °C (dec.)
CCCc1nnc2c(=O)[nH]c3cc(C(=O)N(C)Cc4cccc(Cl)c4)ccc3n12 [Example 134],950 nM,
COc1cc2c(cc1C(=O)N1Cc3ccccc3C[C@@H]1CO)[nH]c(=O)c1cnc(C3CCCCC3)n12 [Example 220],18 nM,215 °C (dec.)
Cc1cc2c(cc1C(=O)N1CCc3cc(F)c(Cl)cc31)[nH]c(=O)c1nnc(C3CCCC3)n12.Cl [Example 248],5.8 nM,276 to 278 °C
Cl.O=C(c1cc2[nH]c(=O)c3cnc(C4CCOCC4)n3c2cc1C1CC1)N1CCc2cc(Cl)ccc21 [Example 263],0.9 nM,339 to 342 °C (dec.)
Cc1cc2c(cc1C(=O)N1CCc3cc(Cl)ccc31)[nH]c(=O)c1nnc(C3CCCOC3)n12.Cl (centres unmarked) [Example 281],1.6 nM,298 to 301 °C
Cc1cc2c(cc1C(=O)N1CCc3cc(F)c(F)cc31)[nH]c(=O)c1nnc(C3CCCC3)n12.Cl [Example 289],3.9 nM,210 to 212 °C (dec.)
Cc1cc2c(cc1C(=O)N1CCc3cc(Cl)c(F)cc31)[nH]c(=O)c1nnc(C3CCOCC3)n12 [Example 291],2.8 nM,309 to 311 °C
Cc1cc2c(cc1C(=O)N1CCc3cc(F)ccc31)[nH]c(=O)c1nnc(C3(C)CCOCC3)n12.Cl [Example 322],29 nM,243 to 245 °C
Cc1cc2c(cc1C(=O)N1CCc3cc(Cl)c(F)cc31)[nH]c(=O)c1nnc(C3CCCC3)n12 [Example 324],1.7 nM,
Cl.O=C(c1cc2[nH]c(=O)c3cnc(C4CCOCC4)n3c2cc1OCCO)N1CCc2cc(Cl)ccc21 [Example 326],1.2 nM,303 to 306 °C (dec.)
Cc1cc2c(cc1C(=O)N1CCc3cc(Cl)ccc31)[nH]c(=O)c1cnc([C@H]3CC[C@@H](O)CC3)n12.Cl [Example 330],1.2 nM,204 to 206 °C
COc1cc2c(cc1C(=O)N1Cc3ccccc3C1)[nH]c(=O)c1nnc(C3CCOCC3)n12.Cl [Example 338],28 nM,228 °C (dec.)
Cc1cc2c(cc1C(=O)N1CCc3cc(Br)cnc31)[nH]c(=O)c1nnc(C3CC(F)(F)C3)n12 [Example 346],27 nM,
COCc1cc2c(cc1C(=O)N1CCc3cc(Cl)ccc31)[nH]c(=O)c1nnc(C3CCOCC3)n12 [Example 347],3.3 nM,198 to 201 °C
COCc1cc2c(cc1C(=O)N1CCc3ncccc3C1)[nH]c(=O)c1cnc(C3CCOCC3)n12 [Example 350],9.2 nM,172 to 175 °C
Cc1cc2c(cc1C(=O)N1CCc3cc(Cl)ccc31)[nH]c(=O)c1nnc([C@H]3CC[C@@H](O)CC3)n12 [Example 356],1.5 nM,277 to 279 °C
Cc1cc2c(cc1C(=O)N1CCc3cc(Cl)ccc31)[nH]c(=O)c1nnc(C(O)C3CC3)n12 (centres unmarked) [Example 359],5.4 nM,260 to 262 °C (dec.)
Cc1cc2c(cc1C(=O)N1CC(C)(C)c3cc(Cl)ccc31)[nH]c(=O)c1nnc(C3CCOCC3)n12.Cl [Example 517],0.9 nM,227 to 230 °C
COCc1cc2c(cc1C(=O)N1CCc3cc(F)c(F)cc31)[nH]c(=O)c1nnc(C3CCOCC3)n12.Cl [Example 519],6.8 nM,266 to 269 °C
